In US6326526A, “Melatonin receptor-deficient mice and uses thereof” (Bristol-Myers Squibb Company, priority 2000, dated 2001):

Legend:
[1] = tested on: SCN slices from wild-type mice (multiunit activity); test: SCN multiunit recordings, melatonin-induced inhibition of neuronal firing, wild-type mice; assay type: cell-based, mouse
Method: (§1) Adult male wild-type and homozygous mutant mice were housed in LD 12:12 for a minimum of three weeks prior to experimentation. After the adaptation period, the mice were killed 2.0 to 4.5 hours after lights-on, and brains were rapidly dissected and placed into ACSF medium containing 116.3 mM NaCl, 5,4 mM KCl, 1.0 mM NaH2 PO4, 26.2 mM NaHCO3, 1.8 mM CaCl2, 0.8 mM MgSO4, 24.6 mM dextrose, and 5 mg/l Gentamicin sulphate, pH 7.5. A block of tissue containing the hypothalamus was dissected from the brain and transferred to a manual tissue chopper where coronal hypothalamic brain slices (400 μm in thickness) containing the SCN were prepared. Slices were placed in a Haas-type brain slice chamber (Haas H. L., et al., J. Neurosci. Methods 1:323-325, 1979; Medical Systems Corp.) and gauze strips placed over the slices in the vicinity of the SCN to raise the fluid level above the slices. They were continually superfused with ACSF medium warmed to 37° C. To record multiple-unit SCN electrical activity, a 76 μm-diameter, teflon-coated platinum-iridium wire electrode was lowered into the brain slice in the SCN (Bouskila, Y., and Dudek, F. E., Proc. Natl. Acad. Sci. USA 90:3207-3210, 1993). This electrical activity was amplified, and the number of electrical events was counted with a window discriminator (Fintronics Inc., Orange, Conn.). Data were collected and analyzed by computer, using Brainwave™ (Data Waver Technologies, Broomfield, Colo.) or Spike 2™ (Cambridge Electronic Design, Cambridge, Mass.) software. The average number of electrical events in successive 1-minute intervals was determined and plotted against the circadian time of recording. Slices were excluded if their viability was compromised on day 2 of recording.
Melatonin was prepared as a 100 μM stock solution in 100% ethanol, which was serially diluted with ACSF medium to yield four melatonin concentrations between 0.1 and 100 nM. A stock solution of vehicle (100% ethanol) was serially diluted with ACSF medium to yield the corresponding vehicle for each melatonin concentration. Melatonin or vehicle was applied by gravity flow in the bath for 30 minutes at each concentration before switching to the next solution. […] In the mouse experiments at circadian time 4.5-6.5 where only the single highest vehicle concentration was used as a comparator, the vehicle was applied for 30 minutes prior to the application of melatonin. A programmable automatic solution switching system (AutoMate Scientific Inc., Oakland, Calif.) was employed to time solution applications.
(§2) The maximum percent inhibition of SCN neuronal firing during each 30 minutes application of melatonin or vehicle was calculated with respect to the average multiunit firing rate during the 5 minute period prior to the first application of a series, and plotted.

[2] = tested on: SCN slices from Mel1a receptor-deficient (homozygous mutant) mice (multiunit activity); conditions: 0.1 to 100 nM, CT 9.5-11.5 and CT 4.5-6.5, relative to vehicle
Method: as §1, with “Slices were placed in a Haas-type brain slice chamber (Haas H. L., et al., J. Neurosci. Methods 1:323-325, 1979; Medical Systems Corp.) and gauze strips placed over the slices in the vicinity of the SCN to raise the fluid level above the slices. They were continually superfused with ACSF medium warmed to 37° C. To record multiple-unit SCN electrical activity, a 76 μm-diameter, teflon-coated platinum-iridium wire electrode was lowered into the brain slice in the SCN (Bouskila, Y., and Dudek, F. E., Proc. Natl. Acad. Sci. USA 90:3207-3210, 1993).” left out, “Slices were excluded if their viability was compromised on day 2 of recording.” left out
as §2

[3] = tested on: SCN slices from wild-type mice (single-unit electrical activity rhythm); test: SCN single unit recordings, phase shift of electrical activity rhythm, wild-type mice; assay type: cell-based, mouse
Method: (§3) Mice were housed in LD 12:12 for three weeks prior to experimentation. After adaptation, mice were killed by decapitation during the light phase of the LD cycle. Hypothalamic slices (500 μm) were prepared using a tissue chopper and incubated at 37° C., as previously described (Liu, C., and Gillette, M. U., J. Neurosci. 16:744-751, 1996). For most experiments, perfusion was discontinued during the 1-hour treatment with melatonin or vehicle (0.0001% ethanol in perfusion medium). For the pertussis toxin experiment, perfusion was discontinued for 6 hours, ending after the vehicle or melatonin treatment. At the end of treatment, the medium in the chamber was replaced, and perfusion was resumed with melatonin-free medium. Single units from the SCN were recorded the following day with glass microelectrodes (Liu, C., and Gillette, M. U., J. Neurosci. 16:744-751, 1996). Signals were amplified, filtered to a band width of 0.3-3 kHz, and stored (MacADIO II, GW Instruments, Somerville, Mass.). Voltage pulses exceeding preset recording threshold were detected on-line by custom software. Off-line analysis assigned a cluster of spikes of similar amplitude and width to each unit recorded (Meister, M., et al., J. Neurosci. Methods 51:95-101, 1994). Firing rate data were analyzed as previously described to determine the time-of-peak in the activity rhythm (Liu, C., and Gillette, M. U., J. Neurosci. 16:744-751, 1996).

[4] = tested on: SCN slices from Mel1a receptor-deficient (homozygous mutant) mice (single-unit electrical activity rhythm); test: SCN single unit recordings, phase shift of electrical activity rhythm, Mel1a receptor-deficient mice; assay type: cell-based, mouse
Method: as §3

[5] = tested on: rat SCN single-unit activity rhythm; conditions: rats; read-out: EC50 of phase-shifting effect on the single-unit activity rhythm; cited from earlier work

COc1ccc2[nH]cc(CCNC(C)=O)c2c1 [melatonin]
inhibition at 0.001 µM ([1]; Mus musculus, 1 nM, at night CT 18, wild-type C57BL/6 mice, n=8): 33.9 ± 3.9%
EC50 ([1]; Mus musculus, 0.1-100 nM, 30 min each, CT 4.5-6.5, day 2 in culture): 412 pM
Percent inhibition of SCN firing rate ([1]; increasing melatonin 0.1-100 nM, CT 4.5-6.5 of day 2 (FIG. 4A)): over 30%
Percent inhibition of SCN firing rate ([1]; melatonin 0.1-100 nM, CT 9.5-11.5 of day 1, plateau (FIG. 4B)): about 13%
Inhibition of SCN multiunit activity [2]: unable to significantly inhibit SCN multiunit activity
Phase advance in circadian phase ([3]; application at CT 9.5-10.5, preliminary studies of wildtype mice): approximately 4 hour
Phase shift in the electrical activity rhythm ([3]; application from CT 5.5-6.5): did not elicit significant phase shifts
CT of activity peak ([3]; application from CT 5.5-6.5, n=3): 6.8 ± 0.3 h
Circadian time of the activity peak [4]: 6.6 ± 0.1 h
Phase of the firing rhythm peak [4]: not shifted
Phase shift (phase advance) in the electrical activity rhythm peak ([4]; 1 nM, CT 9.5-10.5): approximately 4 hour
Phase advance in circadian phase ([4]; 1 nM, CT 9.5-10.5, after 5-hour static bath of normal medium, n=3): 3.2 ± 0.1 h
EC50 [5]: < 100 pM
